Literature values in US8071607B2, “Mnk1 or Mnk2 inhibitors” (Boehringer Ingelheim International GmbH, priority 2004, dated 2011).

Key:
[1] = molecular target: human Mnk2 protein (Homo sapiens, UniProt Q9HBH9); conditions: described in WO 02/103361
[2] = test system: Mnk2 (Mnk2a or Mnk2b); conditions: cell culture cells transfected with Mnk2 (Mnk2a or Mnk2b)
[3] = molecular target: Mnk1 (Homo sapiens, UniProt Q9BUB5); conditions: cell culture cells transfected with Mnk1
Chain of Mnk1 (Q9BUB5 whole entry): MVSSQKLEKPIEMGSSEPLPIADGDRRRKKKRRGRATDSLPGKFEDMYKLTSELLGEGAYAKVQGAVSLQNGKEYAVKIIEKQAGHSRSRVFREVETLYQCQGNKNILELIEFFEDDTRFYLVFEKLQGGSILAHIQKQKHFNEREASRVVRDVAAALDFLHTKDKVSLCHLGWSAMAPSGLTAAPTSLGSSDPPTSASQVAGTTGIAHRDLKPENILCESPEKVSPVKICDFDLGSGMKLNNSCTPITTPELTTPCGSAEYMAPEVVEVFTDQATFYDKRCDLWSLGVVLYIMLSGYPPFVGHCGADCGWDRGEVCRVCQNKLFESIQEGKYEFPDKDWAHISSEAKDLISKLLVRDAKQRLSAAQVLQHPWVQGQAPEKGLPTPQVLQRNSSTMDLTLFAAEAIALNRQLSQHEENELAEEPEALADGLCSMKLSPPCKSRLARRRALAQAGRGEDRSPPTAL

Chain of human Mnk2 protein (Q9HBH9 whole entry): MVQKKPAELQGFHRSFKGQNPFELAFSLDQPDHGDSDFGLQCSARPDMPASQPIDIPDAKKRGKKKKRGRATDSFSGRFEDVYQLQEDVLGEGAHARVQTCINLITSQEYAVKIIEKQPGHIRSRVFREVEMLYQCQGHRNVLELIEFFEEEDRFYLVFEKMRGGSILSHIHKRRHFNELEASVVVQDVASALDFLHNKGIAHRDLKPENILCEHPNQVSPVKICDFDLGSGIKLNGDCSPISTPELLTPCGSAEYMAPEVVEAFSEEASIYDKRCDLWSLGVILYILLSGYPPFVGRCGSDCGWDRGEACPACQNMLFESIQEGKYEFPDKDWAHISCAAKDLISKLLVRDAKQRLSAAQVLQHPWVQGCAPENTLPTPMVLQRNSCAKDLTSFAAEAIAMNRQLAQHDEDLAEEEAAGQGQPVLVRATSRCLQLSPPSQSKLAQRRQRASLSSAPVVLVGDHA

SMILES | binding to the human Mnk2 protein [1] | phosphorylated eIF4E [2] | phosphorylated eIF4E [3]
COC(=O)c1ccc(O)cc1 [4-hydroxybenzoic acid methyl ester] | binds | – | –
Nc1ncnc2n[nH]c(Nc3ccc(F)cc3)c12 [CGP57380] | – | strong reduction | strong reduction
